Measurements from patent US11014934B2, “Antiseptic drug” (AO “TATKHIMFARMPREPARATY”, priority 2017, dated 2021).
Read-outs that look alike come from different tables or passages of the source.

How the values were obtained:
mice = details: intragastric administration on mice; literature and safety data sheets; cited from earlier work
all bacterial strains = test: MIC screening, summary for all bacterial strains; type: cell-based
Protocol: (§1) A comparative assessment of the spectrum of antibacterial action was carried out on archival and clinical strains of gram-positive and gram-negative microorganisms in accordance with the [Opredeleniye chuvstvitel'nosti mikroorganizmov k antibakterial'nym preparatam (Metodicheskiye ukazaniya MUK 4.2.1890-04). Utverzhdeny i vvedeny v deystviye Glavnym gosudarstvennym sanitarnym vrachom Rossiyskoy Federatsii G. G. Onishchenko 04.03.2004 g. Determination of the sensitivity of microorganisms to antibacterial drugs (Guidelines MUK 4.2.1890-04). Approved and put into effect by the Chief State Sanitary Doctor of the Russian Federation G. G. Onishchenko on 4 Mar. 2004].
The value of the minimum inhibitory concentration (MIC) was determined by the method of serial dilutions on Müller-Hinton broth using 96-well sterile plates. […] The growth of cultures was assessed visually, comparing the growth of microorganisms in the presence of test compounds with the growth of culture without them. […] The first lowest concentration of the studied substance (from a series of consecutive dilutions), where bacterial growth is not visually determined, is considered to be the minimum inhibitory concentration (MIC). MIC was determined by the method of serial dilutions in broth with increment=2, so the differences of neighboring dilutions are not considered to be significant. […]

Asp. fumigates = test: Sensitivity of microscopic fungi in solution (colonies after exposure); type: cell-based
Protocol: (§2) For the preparation of inoculum, were respectively used pure (2-5) days cultures of yeast and mycelial fungi, grown on Saburo's dense nutrient broth. Inoculum for plating was prepared in different ways, depending on the type of fungi. Thus, yeast crops (C. albicans) were prepared by washing the culture from an agar stroke. Cultures of mycelial fungi (Rh. oryzae, Asp. fumigatus) were pre-degraded in a pounder. A suspension of microorganisms was prepared in a sterile isotonic sodium chloride solution, bringing the inoculum density to 5 UNITS (GISK [State Research Institute of Standardization and Control] named after L. A. Tarasevich) or according to the McFarland standard 1 UNIT with a concentration of at least 1×10^6 CFU/ml, considering that the size of the fungal elements is approximately 10 times the size of bacteria (this provided the possibility of creating a mixture of biocide with suspension, the concentration of microorganisms of the order of 1×10^5 CFU/ml).
(§3) Solutions of compound I, miramistin, and benzalkonium chloride in working concentrations (0.1%, 0.2%, 0.3%) were poured into sterile 0.9 ml tubes. 0.1 ml of microbial suspension was added to test tubes with disinfectant solutions and mixed by shaking for several seconds. The exposition lasted for 1, 5, and 15 minutes. After required temporary exposure for action of the disinfectant, 0.5 ml of the neutralizer solution was added and mixed by shaking.
(§4) Then, 0.1 ml of the mixture was inoculated on a dense nutrient medium and the plates with inoculate were placed in a thermostat with a temperature of 27° C. for (2-4) days for yeast and (5-7) days for mycelial fungi, respectively.
(§5) After the time required for the cultivation of microorganisms of this species, the results were counted according to the number of colonies grown on the Petri dish. In the absence of growth, the time for culturing microorganisms was increased by a factor of 2. The grown colonies were subjected to microscopy.
(§6) The tested substances were studied on clinical and archival strains of yeast and mycelial fungi. As comparison drugs, drugs commonly used in clinical practice were used: miramistin and benzalconium chloride. After the required exposure time for action of the disinfectant, a series of 0.1 ml mixture was aseptically plated on the surface of a dense nutrient medium in Petri dishes. After the time of cultivation of microorganisms, the results were counted according to the number of colonies grown on the Petri dish.

C. albicans = test: as above; type: cell-based
Protocol: as §2, §3, §4, §5, §6

gram-negative bacteria = test: MIC screening, summary for gram-negative bacteria; type: cell-based
Protocol: as §1
The value of the minimum inhibitory concentration (MIC) was determined by the method of serial dilutions on Müller-Hinton broth using 96-well sterile plates. Two-fold dilutions of the test substances in a nutrient medium were prepared. The final concentrations were 1-128 ug/ml. The growth of cultures was assessed visually, comparing the growth of microorganisms in the presence of test compounds with the growth of culture without them. […] The first lowest concentration of the studied substance (from a series of consecutive dilutions), where bacterial growth is not visually determined, is considered to be the minimum inhibitory concentration (MIC). MIC was determined by the method of serial dilutions in broth with increment=2, so the differences of neighboring dilutions are not considered to be significant. In each experience there is a positive (broth with growing culture) and a negative (broth without growing culture) control.
To determine the MIC, 10 μl of culture medium was taken from those wells in which growth was not observed, and inoculation was performed on a dense Müller-Hinton broth. For the preparation of the inoculum, a pure, daily culture of gram-positive and gram-negative microorganisms grown on a dense nutrient medium was used. Nutrient medium is Müller-Hinton broth, which was prepared from dry media (Müller-Hinton broth, Acumedia, Baltimore), cultivation was carried out on agarized Müller-Hinton broth, including an additional 2% agar. The media were autoclaved at 121° C. for 15 minutes. […] The inoculum was used within 15 minutes after preparation; the purity of the bacterial strains was monitored before each experiment.
100 μl of Müller-Hinton broth was added to the wells of each plate; The tested substance was introduced into the first well at a concentration of 128 μg/ml in a volume of 100 μl and its concentration was adjusted to 0.5 μg/ml by consecutive two-fold dilution. […] In addition, the purity of nutrient media and solvents was monitored. […] The growth of cultures was assessed visually, comparing the growth of microorganisms in the presence of test compounds with the growth of culture without them. […]

Compound | LD50 (mice) | MIC (all bacterial strains; read-out: MIC100) | Number of colonies grown in a Petri dish (Asp. fumigates; exposure 5 min, 0.1% solution) | Number of colonies grown in a Petri dish (C. albicans; exposure 1 min, 0.1% solution) | Number of colonies grown in a Petri dish (C. albicans; exposure 5 min, 0.1% solution) | MIC (gram-negative bacteria; in 11 strains) | MIC (gram-negative bacteria; in 12 strains) | MIC (gram-negative bacteria; in 18 strains) | MIC (all bacterial strains; all bacterial strains, read-out: MIC89) | Number of colonies grown in a Petri dish (Asp. fumigates; exposure 1 min, 0.1% solution) | Number of colonies grown in a Petri dish (Asp. fumigates; exposure 1 min, 0.2% solution) | Number of colonies grown in a Petri dish (Asp. fumigates; exposure 15 min, 0.1% solution) | Number of colonies grown in a Petri dish (C. albicans; exposure 1 min, 0.2% solution) | MIC (gram-negative bacteria; Escherichia coli, ATCC25922, range, with the exception for the archival strain E. coli ATCC 25922)
alkyldimethyl(phenylmethyl) ammonium chloride [Benzalconium chloride] | 150 mg/kg | – | – | – | – | – | – | – | – | – | – | – | – | –
CCCCCCCCCCCC[N+](C)(C)Cc1cnc(C[N+](C)(C)CCCCCCCCCCCC)c2c1COC(CC)O2 (stereo not drawn) [Compound I, 5,8-(Bis(methylene (N, N-dimethyl-N-dodecylammonium))-2-ethyl-4H-[1,3]dioxino [4,5-c]pyridiniumdichloride] | – | < 64 µg/mL | 1 | 3 | 1 | 2 to 4 µg/mL | 32 to 64 µg/mL | 8 to 16 µg/mL | – | – | – | – | – | –
CCCCCCCCCCCCCC(=O)NCCC[N+](C)(C)Cc1ccccc1.O.[Cl-] [Miramistin, benzyldimethyl [3-(myristoylamino)propyl]-ammonium chloride monohydrate] | 1000 mg/kg | – | 12 | 12 | 7 | – | – | – | < 64 µg/mL | 20 | 10 | 2 | 5 | 32 to 64 µg/mL
